Experiments:
Assay type in all cases: binding
[1] = test system: Human Telomere (HT) quadruplex DNA; experiment: Thermal melting UV-Vis absorbance, quadruplex DNA; details: for Change in Thermal Melting Points, Human Telomere (HT), 1:1: ratio 1:1 (R); for Change in Thermal Melting Points, Human Telomere (HT), 2:1: ratio 2:1 (R); for Change in Thermal Melting Points, Human Telomere (HT), 4:1: ratio 4:1 (R); for Change in Thermal Melting Points, Human Telomere (HT), 6:1: ratio 6:1 (R); for Selectivity for quadruplex over duplex DNA by thermal melting: quadruplex vs duplex
Protocol: (§1) Three DNA sequences were used: Human Telomere (HTelo), c-myc, and Duplex (Integrated DNA Technologies, San Diego, Calif.). The sequences are shown below:
The concentration of each DNA sample mixed with MilliQ water was determined by UV-Vis at 260 nm using their extinction coefficients. Quadruplexes from Human Telomere (Tel22) and c-myc were prepared by heating the corresponding oligonucleotides at 90° C. for 5 minutes in a 10 mM Tris/50 mM KCl buffer at pH 7.5 and then cooling to room temperature (to favor the intramolecular folding).
(§2) The buffer used was 10 mM Tris base (Fischer Scientific, Fairlawn, N.J.), 50 mM Potassium Chloride (Fischer Scientific, Fairlawn, N.J.), with the pH adjusted to 7.5 with Hydrochloric Acid (Fischer Scientific, Fairlawn, N.J.).
(§3) DNA folding and unfolding (melting) can be measured using absorbance at a constant wavelength of 260 nm for duplex DNA and 295 nm for quadruplex DNA while the temperature is increased, for example from 25° C. to 95° C. At these wavelengths, the resulting curves decrease in absorbance for quadruplex and increase for duplex DNA. Buffer solution and presence of DNA-binding compounds alter the Tm melting temperature, or midpoint between fully folded and unfolded. An increase in melting temperature in the presence of DNA-binding compounds indicates a stabilizing effect of the compound on the DNA structure.
(§4) The selectivity of a given cyanine for quadruplex DNA can be evaluated using thermal melting. The number in parentheses next to the compound number corresponds to the compound number in Schemes 1 and 2.
(§5) Thermal melting studies were also performed on compounds T4 and T5 (Scheme 2) and ZK-14 and SP-2-36.

Duplex DNA = experiment: Thermal melting UV-Vis absorbance, duplex DNA; details: for Change in Thermal Melting Points, Duplex, 1:1: ratio 1:1 (R); for Change in Thermal Melting Points, Duplex, 2:1: ratio 2:1 (R); for Change in Thermal Melting Points, Duplex, 4:1: ratio 4:1 (R); for Change in Thermal Melting Points, Duplex, 6:1: ratio 6:1 (R)
Protocol: as §1, §2, §3, §4, §5

[2] = test system: Human Telomere (HT) quadruplex DNA; experiment: Fluorescence titration with human telomere quadruplex; details: fluorescence intensity of bound ligand divided by that of free ligand
Source text: (§6) Atoms absorb energy and can emit it as heat (vibrational relaxation), fast light emission (fluorescence), or slow light emission (phosphorescence). Most of the cyanines described herein fluoresce in response to near-infrared wavelengths of light absorption. As the cyanines bind to DNA, π-π stacking and hydrogen bonding is altered leading to a change in fluorescence emission. This change can be measured in direct correlation to DNA binding. In some cases an approximate binding constant can be determined from measuring fluorescence enhancement as DNA is titrated into a solution of fluorescent compound. Fluorescent enhancement, or the maximum emission divided by the minimum emission of the titration (compound saturated with DNA divided by free compound) at a fixed wavelength is useful to compare DNA affinity between a family of compounds.
(§7) A UV-Vis absorbance scan is first conducted to acquire the excitation wavelength. A 5 μM solution of compound in 1 mL, of Tris/K+ buffer is scanned from 800 nm to 200 nm at a rate of 60 nm/min with a 5 nm slit width. All DNAs are diluted in Tris/K+ buffer. The human telomere and c-Myc DNA are annealed into a quadruplex motif by heating at 95° C. in the presence of potassium ions in a hot water bath for approximately five minutes, then allowing the solution to slowly come to room temperature. In a fluorescence cell, an emission scan of 1 μM of compound in 1 mL of Tris Buffer is taken (Varian Cary Eclipse, Walnut Creek, Calif.) with appropriate parameters based on the excitation wavelength, an excitation slit width of 5 nm, and an emission slit width of 5 nm. Then 0.05 μM of DNA is titrated into the solution and scanned under the same conditions after each addition. The solution is titrated to saturation, at which the change in fluorescence intensity is nearly zero.
(§8) Due to the highly stabilized parallel quadruplex structure of c-Myc, thermal melting could not be considered for this sequence. Thus, fluorescence can be used to measure binding affinity towards the two quadruplex structures. […] Fluorescence enhancement, or the fluorescence intensity of the bound ligand divided by that of the free ligand, was considered in evaluating binding.

c-Myc quadruplex DNA = experiment: Fluorescence titration with c-Myc quadruplex; details: fluorescence intensity of bound ligand divided by that of free ligand
Source text: as §6, §7, §8

CC1(C)C(=CC=CC2=[N+](CCC[N+](C)(C)C)c3ccc(S(=O)(=O)[O-])cc3C2(C)C)N(CCC[N+](C)(C)C)c2ccc(S(=O)(=O)[O-])cc21.[Br-] [MH2 (31)]
Change in Thermal Melting Points, Human Telomere (HT), 1:1 [1]: 1.5 | Change in Thermal Melting Points, Human Telomere (HT), 2:1 [1]: 1.1 | Change in Thermal Melting Points, Human Telomere (HT), 4:1 [1]: 0.6 | Change in Thermal Melting Points, Human Telomere (HT), 6:1 [1]: 1.2

CC1(C)C(/C=C/C(Br)=C/C=C2\N(CCC[N+](C)(C)C)c3ccc(F)cc3C2(C)C)=[N+](CCC[N+](C)(C)C)c2ccc(F)cc21 [T5]
Thermal Melting (Δ° C.), Quadruplex DNA, 1:1 ratio [1]: 2.7 +/− 0.3 °C | Thermal Melting (Δ° C.), Quadruplex DNA, 1:2 ratio [1]: 6.2 +/− 0.4 °C | Thermal Melting (Δ° C.), Quadruplex DNA, 1:4 ratio [1]: 13.3 +/− 0.4 °C | Thermal Melting (Δ° C.), Quadruplex DNA, 1:6 ratio [1]: 16.9 +/− 0.6 °C | Selectivity for quadruplex over duplex DNA by thermal melting [1]: bind quite strongly to the quadruplex with excellent selectivity | Thermal Melting (Δ° C.), Duplex DNA, 1:1 ratio (Duplex DNA): 0.1 +/− 0.2 °C | Thermal Melting (Δ° C.), Duplex DNA, 1:2 ratio (Duplex DNA): 0.8 +/− 0.4 °C | Thermal Melting (Δ° C.), Duplex DNA, 1:4 ratio (Duplex DNA): 0.8 +/− 0.4 °C | Thermal Melting (Δ° C.), Duplex DNA, 1:6 ratio (Duplex DNA): 0.9 +/− 0.4 °C

CC1(C)C(=CC=CC2=[N+](CCC[N+](C)(C)C)c3ccc(Cl)cc3C2(C)C)N(CCC[N+](C)(C)C)c2ccc(Cl)cc21.[Br-].[Br-].[Br-] [A-138 (17)]
Selectivity for quadruplex over duplex DNA by thermal melting [1]: selectively bind to quadruplex DNA with little or no binding to duplex DNA | Change in Thermal Melting Points, Human Telomere (HT), 1:1 [1]: 3.0 | Change in Thermal Melting Points, Human Telomere (HT), 2:1 [1]: 7.0 | Change in Thermal Melting Points, Human Telomere (HT), 4:1 [1]: 14.6 | Change in Thermal Melting Points, Duplex, 1:1 (Duplex DNA): 0.0 | Change in Thermal Melting Points, Duplex, 2:1 (Duplex DNA): 0.0 | Change in Thermal Melting Points, Duplex, 4:1 (Duplex DNA): −1.0 | Fluorescence Enhancement, HT [2]: 2.7 | Fluorescence Enhancement, c-Myc (c-Myc quadruplex DNA): 5.4

CC1(C)C(/C=C/C(Cl)=C/C=C2\N(CCC[N+](C)(C)C)c3ccccc3C2(C)C)=[N+](CCC[N+](C)(C)C)c2ccccc21.[Br-].[Br-].[Br-] [A-20 (42)]
Selectivity for quadruplex over duplex DNA by thermal melting [1]: selectively bind to quadruplex DNA with little or no binding to duplex DNA | Change in Thermal Melting Points, Human Telomere (HT), 1:1 [1]: 2.6 | Change in Thermal Melting Points, Human Telomere (HT), 2:1 [1]: 6.0 | Change in Thermal Melting Points, Human Telomere (HT), 4:1 [1]: 12.2 | Change in Thermal Melting Points, Human Telomere (HT), 6:1 [1]: 13.2 | Change in Thermal Melting Points, Duplex, 1:1 (Duplex DNA): 0 | Change in Thermal Melting Points, Duplex, 2:1 (Duplex DNA): 0.9 | Change in Thermal Melting Points, Duplex, 4:1 (Duplex DNA): 0.9 | Change in Thermal Melting Points, Duplex, 6:1 (Duplex DNA): 2.8 | Fluorescence Enhancement, HT [2]: 1.74 | Fluorescence Enhancement, c-Myc (c-Myc quadruplex DNA): 3.58

CCCCn1/c(=C/C=C/C2=[N+](CCC[N+](C)(C)C)c3ccccc3C2(C)C)c2cccc3cccc1c32 [ZK-14]
Thermal Melting (Δ° C.), Quadruplex DNA, 1:1 ratio [1]: 1.9 +/− 0.3 °C | Thermal Melting (Δ° C.), Quadruplex DNA, 1:2 ratio [1]: 7.7 +/− 1.1 °C | Thermal Melting (Δ° C.), Quadruplex DNA, 1:4 ratio [1]: 20.4 +/− 1.0 °C | Thermal Melting (Δ° C.), Quadruplex DNA, 1:6 ratio [1]: 26.0 +/− 0.5 °C | Selectivity for quadruplex over duplex DNA by thermal melting [1]: bind quite strongly to the quadruplex with excellent selectivity | Thermal Melting (Δ° C.), Duplex DNA, 1:1 ratio (Duplex DNA): 0.6 +/− 0.1 °C | Thermal Melting (Δ° C.), Duplex DNA, 1:2 ratio (Duplex DNA): 0.8 +/− 0.3 °C | Thermal Melting (Δ° C.), Duplex DNA, 1:4 ratio (Duplex DNA): 2.7 +/− 0.1 °C | Thermal Melting (Δ° C.), Duplex DNA, 1:6 ratio (Duplex DNA): 2.8 +/− 0.3 °C

CC1(C)C(/C=C/C(Cl)=C/C=C2\N(CCC[N+](C)(C)C)c3ccc(F)cc3C2(C)C)=[N+](CCC[N+](C)(C)C)c2ccc(F)cc21 [T4]
Thermal Melting (Δ° C.), Quadruplex DNA, 1:1 ratio [1]: 1.6 +/− 0.2 °C | Thermal Melting (Δ° C.), Quadruplex DNA, 1:2 ratio [1]: 3.3 +/− 0.4 °C | Thermal Melting (Δ° C.), Quadruplex DNA, 1:4 ratio [1]: 8.0 +/− 0.7 °C | Thermal Melting (Δ° C.), Quadruplex DNA, 1:6 ratio [1]: 10.7 +/− 0.7 °C | Thermal Melting (Δ° C.), Duplex DNA, 1:1 ratio (Duplex DNA): 0.4 +/− 0.4 °C | Thermal Melting (Δ° C.), Duplex DNA, 1:2 ratio (Duplex DNA): 0.5 +/− 0.4 °C | Thermal Melting (Δ° C.), Duplex DNA, 1:4 ratio (Duplex DNA): 0.9 +/− 0.5 °C | Thermal Melting (Δ° C.), Duplex DNA, 1:6 ratio (Duplex DNA): 1.2 +/− 0.7 °C

CC1(C)C(=CC=CC2=[N+](CCC[N+](C)(C)C)c3ccccc3C2(C)C)N(CCC[N+](C)(C)C)c2ccccc21.[Br-].[Br-].[Br-] [MH4 (26)]
Selectivity for quadruplex over duplex DNA by thermal melting [1]: selectively bind to quadruplex DNA with little or no binding to duplex DNA | Change in Thermal Melting Points, Human Telomere (HT), 1:1 [1]: 1.6 | Change in Thermal Melting Points, Human Telomere (HT), 2:1 [1]: 4.1 | Change in Thermal Melting Points, Human Telomere (HT), 4:1 [1]: 8.7 | Change in Thermal Melting Points, Human Telomere (HT), 6:1 [1]: 13.7 | Change in Thermal Melting Points, Duplex, 1:1 (Duplex DNA): 0 | Change in Thermal Melting Points, Duplex, 2:1 (Duplex DNA): 0.9 | Change in Thermal Melting Points, Duplex, 4:1 (Duplex DNA): −0.2 | Change in Thermal Melting Points, Duplex, 6:1 (Duplex DNA): 1.8 | Fluorescence Enhancement, HT [2]: 1.68 | Fluorescence Enhancement, c-Myc (c-Myc quadruplex DNA): 7.74

CC1(C)C(/C=C/C(=C/C=C2\N(CCC[N+](C)(C)C)c3ccccc3C2(C)C)c2ccncc2)=[N+](CCC[N+](C)(C)C)c2ccccc21 [SP-2-36]
Thermal Melting (Δ° C.), Quadruplex DNA, 1:1 ratio [1]: 0.9 +/− 0.1 °C | Thermal Melting (Δ° C.), Quadruplex DNA, 1:2 ratio [1]: 1.4 +/− 0.2 °C | Thermal Melting (Δ° C.), Quadruplex DNA, 1:4 ratio [1]: 3.5 +/− 0.8 °C | Thermal Melting (Δ° C.), Quadruplex DNA, 1:6 ratio [1]: 4.4 +/− 0.5 °C | Thermal Melting (Δ° C.), Duplex DNA, 1:1 ratio (Duplex DNA): 0.2 +/− 0.3 °C | Thermal Melting (Δ° C.), Duplex DNA, 1:2 ratio (Duplex DNA): 0.5 +/− 0.5 °C | Thermal Melting (Δ° C.), Duplex DNA, 1:4 ratio (Duplex DNA): 0.5 +/− 0.3 °C | Thermal Melting (Δ° C.), Duplex DNA, 1:6 ratio (Duplex DNA): 0.6 +/− 0.3 °C

From patent publication US11572475B2, “Carbocyanines for G-quadruplex DNA stabilization and telomerase inhibition” (GEORGIA STATE UNIVERSITY RESEARCH FOUNDATION, INC., priority 2011, dated 2023)
